Laboratory results reported in article PMC6177136, “Hybrid topoisomerase I and HDAC inhibitors as dual action anticancer agents” (PLoS ONE, 2018).

Key:
HepG2 = assay: Cytotoxicity assay (SRB, 72 h) HepG2; assay type: cell-based, Human; conditions: Homo sapiens, HepG2, read-out: IC50 ± SD HepG2
[1] = test system: series of human tumor cell lines; assay: Antiproliferative activity, series of human tumor cell lines (summary); assay type: cell-based; conditions: span over the cell line panel, 72 h, SRB assay, read-out: IC50 across the human tumor cell lines of Table 3
HDAC6 = HDAC6 (Homo sapiens, UniProt Q9UBN7); assay: HDAC profiling HDAC6; assay type: biochemical; conditions: purified isoform, 10 concentrations from 10 μM, triplicate
MINO = assay: Cytotoxicity assay (MTT, 72 h) MINO; assay type: cell-based, Human; conditions: Homo sapiens, MINO; 72 h, MTT assay; read-out: IC50 ± SD MINO
MAVER-2 = assay: Cytotoxicity assay (MTT, 72 h) MAVER-2; assay type: cell-based, Human; conditions: Homo sapiens, read-out: IC50 ± SD MAVER-2
U-2932 = assay: Cytotoxicity assay (MTT, 72 h) U-2932; assay type: cell-based, Human; conditions: Homo sapiens, U2932, read-out: IC50 ± SD U-2932
OCI-LY3 = assay: Cytotoxicity assay (MTT, 72 h) OCI-LY3; assay type: cell-based, Human; conditions: Homo sapiens, OCI-Ly3; 72 h, MTT assay; read-out: IC50 ± SD OCI-LY3
Description: (§1) Human tumor cells were seeded in 96-well cell culture plastic plates, allowed to attach, and exposed to scalar concentrations of the test compounds.

ARH-77 = assay: Cytotoxicity assay (MTT, 72 h) ARH-77; assay type: cell-based; conditions: Homo sapiens, read-out: IC50 ± SD ARH-77
Jurkat-cp = assay: Cytotoxicity assay (MTT, 72 h) Jurkat-cp; assay type: cell-based; conditions: Homo sapiens, read-out: IC50 ± SD Jurkat-cp
REC-1 = assay: Cytotoxicity assay (MTT, 72 h) REC-1; assay type: cell-based; conditions: Homo sapiens, Rec1, read-out: IC50 ± SD REC-1
Z-138 = assay: Cytotoxicity assay (MTT, 72 h) Z-138; assay type: cell-based; conditions: Homo sapiens, read-out: IC50 ± SD Z-138
RPMI-8226 = assay: Cytotoxicity assay (MTT, 72 h) RPMI-8226; assay type: cell-based; conditions: Homo sapiens, read-out: IC50 ± SD RPMI-8226
Description: as §1

[2] = test system: hematologic cancer cell lines; assay: Screening on hematologic cancer cell lines (summary); assay type: cell-based; conditions: Homo sapiens, read-out: IC50 across hematologic cancer cell lines (Tables 5 and 6); span over the cell line panel, 72 h, MTT assay
MM288 = assay: Cytotoxicity assay, primary mesothelioma MM288; assay type: cell-based, Human; conditions: Homo sapiens; epithelioid, 72 h, SBR assay; read-out: IC50 ± SD MM288
MM404 = assay: Cytotoxicity assay, primary mesothelioma MM404; assay type: cell-based, Human; conditions: Homo sapiens; epithelioid, 72 h, SBR assay; read-out: IC50 ± SD MM404
MM473 = assay: Cytotoxicity assay, primary mesothelioma MM473; assay type: cell-based, Human; conditions: Homo sapiens, MM473; epithelioid, 72 h, SBR assay; read-out: IC50 ± SD MM473
MM481 = assay: Cytotoxicity assay, primary mesothelioma MM481; assay type: cell-based, Human; conditions: Homo sapiens; epithelioid, 72 h, SBR assay; read-out: IC50 ± SD MM481
MM491 = assay: Cytotoxicity assay, primary mesothelioma MM491; assay type: cell-based, Human; conditions: Homo sapiens; biphasic, 72 h, SBR assay; read-out: IC50 ± SD MM491
MM432 = assay: Cytotoxicity assay, primary mesothelioma MM432; assay type: cell-based, Human; conditions: Homo sapiens; sarcomatoid, 72 h, SBR assay; read-out: IC50 ± SD MM432
[3] = test system: primary malignant pleural mesothelioma (MPM) cell lines; assay: Primary malignant pleural mesothelioma (MPM) cell lines (summary); assay type: cell-based; conditions: Homo sapiens, span over the cell line panel, 72 h, read-out: IC50 across primary mesothelioma cell lines (Table 7)
Acetylated Histone H4 = assay: Western blot, acetylation of histone H4 in NCI-H460 cells; assay type: cell-based, Human; conditions: 24 h; SN38 0.05 μM, SAHA 5 μM, 3b and 3d 0.125–0.2–0.5 μM
Description: (§2) The supernatant, containing the total proteins extracts, were transferred in new vials. The protein concentration was measured by Bradford Protein Assay. Equal amounts of proteins for each sample were then resolved by SDS-PAGE and loaded on 10–12% polyacrilamide gels. The proteins were then transferred on nitrocellulose membranes. Molecular weights were estimated based upon the relative migration with molecular weight protein markers.
(§3) The non-specific binding was blocked by incubation of membranes in TBS-tween (25 mM Tris, 150 mM NaCl, 0.1% Tween 20) with 5% nonfat dry milk (BIORAD, Milan) for 60 minutes. Subsequently, the membrane was incubated overnight with primary antibodies: anti-Histone H4 (Millipore, 1:500), anti-acetyl-H4 (Santa Cruz, 1:1000) anti-p21 (Santa Cruz, 1:1000), anti-acetyl-tubulin (abcam, 1:1000), anti-α-tubulin (Sigma, 1:5000), anti β-actin (Sigma, 1:5000) and anti-Topoisomerase 1 (Santa Cruz, 1:500). After three washes with TBST blots were incubated with HRP-coniugated secondary anti-mouse and anti-rabbit (Santa Cruz, 1:5000) 1 hour at room temperature. After three washes with TBST the blots were developed with ECL substrate (GE Healthcare) and chemiluminescence detected by ChemiDoc Imaging System (Biorad). The optical density of the protein bands detected by western blotting was normalized on α -tubulin levels and analyzed by ChemiDoc software (Biorad). […]

Acetylated Tubulin = assay: Western blot, acetylation of tubulin in NCI-H460 cells; assay type: cell-based, Human; conditions: 24 h; SN38 0.05 μM, SAHA 5 μM, 3b and 3d 0.125–0.2–0.5 μM
Description: as §2, §3

Top1 = assay: Western blot, Top1 expression in NCI-H460 cells; assay type: cell-based, Human; conditions: 24 h; SAHA 5 μM, SN38 0.05 μM, 3d 0.125–0.2–0.5 μM
Description: as §2, §3

H2A.X = assay: Western blot, H2A.X induction in NCI-H460 cells; assay type: cell-based, Human; conditions: 24 h; SAHA 5 μM, SN38 0.05 μM, 3d 0.125–0.2–0.5 μM
Description: as §2
(§4) The non-specific binding was blocked by incubation of membranes in TBS-tween (25 mM Tris, 150 mM NaCl, 0.1% Tween 20) with 5% nonfat dry milk (BIORAD, Milan) for 60 minutes. Subsequently, the membrane was incubated overnight with primary antibodies: anti-Histone H4 (Millipore, 1:500), anti-acetyl-H4 (Santa Cruz, 1:1000) anti-p21 (Santa Cruz, 1:1000), anti-acetyl-tubulin (abcam, 1:1000), anti-α-tubulin (Sigma, 1:5000), anti β-actin (Sigma, 1:5000) and anti-Topoisomerase 1 (Santa Cruz, 1:500). After three washes with TBST blots were incubated with HRP-coniugated secondary anti-mouse and anti-rabbit (Santa Cruz, 1:5000) 1 hour at room temperature. After three washes with TBST the blots were developed with ECL substrate (GE Healthcare) and chemiluminescence detected by ChemiDoc Imaging System (Biorad). The optical density of the protein bands detected by western blotting was normalized on α -tubulin levels and analyzed by ChemiDoc software (Biorad).
(§5) Cells were lysed in 0.5% NP-40 and 40 μg of total proteins were loaded on NuPAGE 4–12% (Invitrogen), transferred to a nitrocellulose paper and probed with specific antibodies.

p21 = assay: Western blot, p21 in NCI-H460 cells; assay type: cell-based, Human; conditions: 24 h; SAHA 5 μM, SN38 0.05 μM, 3d 0.125–0.2–0.5 μM
Description: as §2, §3

CycD1 = assay: Western blot, CycD1 in NCI-H460 cells; assay type: cell-based, Human; conditions: 24 h; SAHA 5 μM, SN38 0.05 μM, 3d 0.125–0.2–0.5 μM
Description: as §2, §4, §5

[4] = mouse, in vivo, iv, 45 mg/kg

Chain of HDAC6 (Q9UBN7 whole entry, canonical isoform): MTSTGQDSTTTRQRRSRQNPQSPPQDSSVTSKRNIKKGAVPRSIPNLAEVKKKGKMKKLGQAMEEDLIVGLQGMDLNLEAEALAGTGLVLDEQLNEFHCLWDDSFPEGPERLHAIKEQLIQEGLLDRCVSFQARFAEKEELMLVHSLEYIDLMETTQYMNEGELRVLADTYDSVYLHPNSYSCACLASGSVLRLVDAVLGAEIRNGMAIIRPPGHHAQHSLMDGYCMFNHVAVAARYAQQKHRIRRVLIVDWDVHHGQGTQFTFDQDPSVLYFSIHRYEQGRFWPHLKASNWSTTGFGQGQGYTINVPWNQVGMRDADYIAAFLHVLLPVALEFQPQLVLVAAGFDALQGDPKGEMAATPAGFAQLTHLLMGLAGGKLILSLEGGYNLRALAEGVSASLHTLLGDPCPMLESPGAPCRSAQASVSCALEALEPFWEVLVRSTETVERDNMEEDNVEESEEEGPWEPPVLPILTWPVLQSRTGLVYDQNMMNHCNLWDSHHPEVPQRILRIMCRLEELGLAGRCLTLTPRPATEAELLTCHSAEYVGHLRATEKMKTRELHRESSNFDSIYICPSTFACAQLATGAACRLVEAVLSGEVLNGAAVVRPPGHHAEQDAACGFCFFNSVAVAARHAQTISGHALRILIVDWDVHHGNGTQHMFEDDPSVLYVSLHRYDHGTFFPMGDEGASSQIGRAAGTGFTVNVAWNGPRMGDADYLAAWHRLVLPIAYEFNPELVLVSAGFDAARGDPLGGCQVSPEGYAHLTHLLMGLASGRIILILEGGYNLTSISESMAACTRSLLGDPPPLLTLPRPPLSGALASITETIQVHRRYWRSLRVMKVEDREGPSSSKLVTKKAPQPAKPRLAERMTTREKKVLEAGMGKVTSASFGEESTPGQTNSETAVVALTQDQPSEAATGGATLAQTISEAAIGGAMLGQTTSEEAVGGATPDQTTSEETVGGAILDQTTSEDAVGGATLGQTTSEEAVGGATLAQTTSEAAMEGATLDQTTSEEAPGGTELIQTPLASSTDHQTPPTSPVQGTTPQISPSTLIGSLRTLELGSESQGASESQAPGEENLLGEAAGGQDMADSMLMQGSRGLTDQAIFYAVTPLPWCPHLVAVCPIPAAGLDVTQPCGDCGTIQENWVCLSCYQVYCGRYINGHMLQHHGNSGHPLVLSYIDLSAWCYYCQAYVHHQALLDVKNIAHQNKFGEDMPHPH

Work on `CC[C@@]1(O)C(=O)OCc2c1cc1n(c2=O)Cc2c-1nc1ccc(O)cc1c2C=NOCCCCCC(=O)NO` [Compound 3d, 6-(10-hydroxycamptothecin-7-ylmethyleneaminooxy)-hexanoic acid hydroxyamide] yielded an IC50 (HepG2) of 110 ± 30 nM, an IC50 [1] of 30 to 400 nM and an IC50 (HDAC6) of 1.56 nM. The IC50 (MINO) was 31 ± 10 nM, the IC50 (MAVER-2) was 12 ± 1 nM and the IC50 (U-2932) was 44 ± 10 nM. For the same compound, the IC50 (OCI-LY3) was 18 ± 5 nM, the IC50 (ARH-77) was 210 ± 60 nM and the IC50 (Jurkat-cp) was 230 ± 50 nM. For the same compound, the IC50 (REC-1) was 180 ± 40 nM, the IC50 (Z-138) was 6 ± 1 nM and the IC50 (RPMI-8226) was 4100 ± 1400 nM. The IC50 [2] was 6 to 4000 nM, the IC50 (MM288) was 480 ± 100 nM and the IC50 (MM404) was 1400 ± 300 nM. For the same compound, the IC50 (MM473) was 2100 ± 500 nM, the IC50 (MM481) was 11700 ± 1200 nM and the IC50 (MM491) was 870 ± 300 nM. The IC50 (MM432) was 160 ± 30 nM, the IC50 [3] was 50 to 11000 nM and the “accumulation of acetylated histone H4” value (Acetylated Histone H4) was “H4 and tubulin acetylation in a dose dependent manner”. The “accumulation of acetylated tubulin” value (Acetylated Tubulin) was “H4 and tubulin acetylation in a dose dependent manner”, the “expression of Top1” value (Top1) was “drastically reduced the expression of Top1” and the “H2A.X induction (DNA damage)” value (H2A.X) was “DNA damage at a dose corresponding to its IC80, confirmed by H2A.X induction”. For the same compound, the “expression of p21” value (p21) was “activated the expression of p21”, the CycD1 regulation (CycD1) was “didn’t show any effect” and the body weight [4] was “no reduction in body weight was observed”.
